# According to patent US5952328A, “Benzothiazo and related heterocyclic group-containing cysteine and serine protease inhibitors” (Cephalon, Inc., priority 1997, dated 1999):
# Biological target: T1, Calpain I (Homo sapiens, UniProt P07384)
# T1 construct: made in house
# T1 sequence (P07384 1-714): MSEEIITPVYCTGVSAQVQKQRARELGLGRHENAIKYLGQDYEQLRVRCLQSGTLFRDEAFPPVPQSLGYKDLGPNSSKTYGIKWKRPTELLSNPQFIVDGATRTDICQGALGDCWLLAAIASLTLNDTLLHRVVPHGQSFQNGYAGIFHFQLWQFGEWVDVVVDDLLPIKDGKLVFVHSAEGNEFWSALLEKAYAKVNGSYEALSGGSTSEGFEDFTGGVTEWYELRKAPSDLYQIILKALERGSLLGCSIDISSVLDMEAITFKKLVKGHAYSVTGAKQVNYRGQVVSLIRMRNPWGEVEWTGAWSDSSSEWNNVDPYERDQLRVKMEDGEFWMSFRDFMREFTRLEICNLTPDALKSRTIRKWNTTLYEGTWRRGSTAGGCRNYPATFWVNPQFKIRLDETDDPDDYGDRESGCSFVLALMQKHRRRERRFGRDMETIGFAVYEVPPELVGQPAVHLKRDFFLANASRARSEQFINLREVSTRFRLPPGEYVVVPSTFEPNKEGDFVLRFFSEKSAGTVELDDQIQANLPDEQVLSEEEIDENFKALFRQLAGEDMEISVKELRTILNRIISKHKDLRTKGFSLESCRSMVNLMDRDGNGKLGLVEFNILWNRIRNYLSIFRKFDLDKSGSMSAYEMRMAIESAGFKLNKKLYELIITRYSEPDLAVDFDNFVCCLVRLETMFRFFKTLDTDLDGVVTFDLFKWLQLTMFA
# T1 sequence (P04632 1-268 partner): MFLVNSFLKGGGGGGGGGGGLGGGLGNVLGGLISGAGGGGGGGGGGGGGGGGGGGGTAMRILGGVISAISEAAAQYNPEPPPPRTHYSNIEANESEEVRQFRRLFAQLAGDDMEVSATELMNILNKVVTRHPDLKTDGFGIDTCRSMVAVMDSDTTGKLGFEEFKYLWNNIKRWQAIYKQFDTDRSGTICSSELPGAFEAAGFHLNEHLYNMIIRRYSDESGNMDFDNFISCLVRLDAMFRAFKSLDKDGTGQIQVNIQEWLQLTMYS
# Test: Inhibition of calpain I activity (Succ-Leu-Tyr-MNA substrate hydrolysis, fluorescence)
# Type: biochemical
# Settings: Table II; calpain I, 0.2 mM Succ-Leu-Tyr-MNA, pH 7.5; * mixture of diastereomers, a,b single diastereomers; read-out: IC50
# Method: To evaluate inhibitory activity, stock solutions (40 times concentrated) of each compound to be tested were prepared in 100% anhydrous DMSO and […] of each inhibitor preparation were aliquoted into each of three wells of a 96-well plate. Calpain I, prepared by a modification of the method of W. J. Lee et al. (Biochem. […] To start the reaction, […] of 50 mM CaCl2 in assay buffer was added to each of the wells of the plate, excepting three, which were used as background signal baseline controls. Substrate hydrolysis was monitored every 5 minutes for a total of 30 minutes using a Fluoroskan II fluorescence plate reader. […] Inhibition of calpain I activity was calculated as the percent decrease in the rate of substrate hydrolysis in the presence of inhibitor relative to the rate in its absence. Comparison between the inhibited and control rates was made within the linear range for substrate hydrolysis. For screening, compounds were tested at […]. […] The results were plotted as percent inhibition versus log inhibitor concentration, and the IC50 was calculated from linear regression of the data.
row,Compound,IC50
1,"COc1cc2c(cc1OC)S(=O)(=O)NC(C(=O)N[C@H](C=O)Cc1ccccc1)C2 (single isomer, unassigned) [Cpd 12c, N-(3,4-Dihydro-6,7-dimethoxy-2H-1,2-benzothiazine-3-carbonyl)-L-phenylalaninal 1,1-dioxide]",~800 nM
2,"COc1cc2c(cc1OC)S(=O)(=O)NC(C(=O)N[C@H](C=O)Cc1ccccc1)C2 (single isomer, unassigned) [Cpd 12d, N-(3,4-Dihydro-6,7-dimethoxy-2H-1,2-benzothiazine-3-carbonyl)-L-phenylalaninal 1,1-dioxide]",~700 nM
3,"COc1cc2c(cc1OC)S(=O)(=O)OC(C(=O)N[C@H](C=O)CC(C)C)C2 (stereo partly drawn) [Cpd 12a, N-(3,4-Dihydro-6,7-dimethoxy-2,1-benzoxathiin-3-carbonyl)-L-leucinal 1,1-dioxide]",130 nM
4,"COc1cc2c(cc1OC)S(=O)(=O)OC(C(=O)N[C@H](C=O)Cc1ccccc1)C2 (stereo partly drawn) [Cpd 12b, N-(3,4-Dihydro-6,7-dimethoxy-2,1-benzoxathiin-3-carbonyl)-L-phenylalaninal 1,1-dioxide]",51 nM
5,"COc1cc2c(cc1OC)S(=O)(=O)N(Cc1ccccc1)C(C(=O)N[C@H](C=O)Cc1ccccc1)C2 (stereo partly drawn) [Cpd 12g, N-(2-Benzyl-3,4-dihydro-6,7-dimnethoxy-2H-1,2-benzothiazine-3-carbonyl)-L-phenylalaninal 1,1-dioxide]",~1000 nM
6,"COc1cc2c(cc1OC)S(=O)(=O)N(Cc1ccccc1)C(C(=O)N[C@H](C=O)Cc1ccccc1)C2 (stereo partly drawn) [Cpd 12h, N-(2-Benzyl-3,4-dihydro-6,7-dimethoxy-2H-1,2-benzothiazine-3-carbonyl)-L-phenylalaninal 1,1-dioxide]",150 nM
7,"CN1C(C(=O)N[C@H](C=O)CCCCNS(=O)(=O)c2ccccc2)Cc2cc3c(cc2S1(=O)=O)OCCO3 (stereo partly drawn) [Cpd 12x, Nα -(3,4-Dihydro-6,7-ethylenedioxy-2-methyl-2H-1,2-benzothiazine-3-carbonyl)-L-Nε -(benzenesulfonyl)lysinal 1,1-dioxide]",36 nM
8,"CN1C(C(=O)N[C@H](C=O)CCCCNS(=O)(=O)c2ccccc2)Cc2cc3c(cc2S1(=O)=O)OCCO3 (stereo partly drawn) [Cpd 12y, Nα -(3,4-Dihydro-6,7-ethylenedioxy-2-methyl-2H-1,2-benzothiazine-3-carbonyl)-L-Nε -(benzenesulfonyl)lysinal 1,1-dioxide]",107 nM

# More lines, now with the values ahead:
row,IC50,Compound
1,30 nM,"CN1C(C(=O)N[C@H](C=O)Cc2ccccc2)Cc2cc(N3CCOCC3)ccc2S1(=O)=O (stereo partly drawn) [Cpd 12aa, N-(3,4-Dihydro-6-(4-morpholino)-2-methyl-2H-1,2-benzothiazine-3-carbonyl)-L-phenylalaninal 1,1-dioxide]"
2,200 nM,"COc1cc2c(cc1OC)S(=O)(=O)N(C)C(C(=O)N[C@H](C=O)Cc1ccccc1)C2 (stereo partly drawn) [Cpd 12e, N-(3,4-Dihydro-6,7-dimethoxy-2-methyl-2H-1,2-benzothiazine-3-carbonyl)-L-phenylalaninal 1,1-dioxide]"
3,38 nM,"COc1cc2c(cc1OC)S(=O)(=O)N(C)C(C(=O)N[C@H](C=O)Cc1ccccc1)C2 (stereo partly drawn) [Cpd 12f, N-(3,4-Dihydro-6,7-dimethoxy-2-methyl-2H-1,2-benzothiazine-3-carbonyl)-L-phenylalaninal 1,1-dioxide]"
4,28 nM,"CN1C(C(=O)N[C@H](C=O)Cc2ccccc2)Cc2ccccc2S1(=O)=O (stereo partly drawn) [Cpd 12i, N-(3,4-Dihydro-2-methyl-2H-1,2-benzothiazine-3-carbonyl)-L-phenylalaninal 1,1-dioxide]"
5,110 nM,"CN1C(C(=O)N[C@H](C=O)Cc2ccccc2)Cc2ccccc2S1(=O)=O (stereo partly drawn) [Cpd 12j, N-(3,4-Dihydro-2-methyl-2H-1,2-benzothiazine-3-carbonyl)-L-phenylalaninal 1,1-dioxide]"
6,~200 nM,"CC(C)CN1C(C(=O)N[C@H](C=O)Cc2ccccc2)Cc2cc(Cl)ccc2S1(=O)=O (stereo partly drawn) [Cpd 12n, N-(3,4-Dihydro-6-chloro-2-isobutyl-2H-1,2-benzothiazine-3-carbonyl)-L-phenylalaninal 1,1-dioxide]"
7,5 nM,"CN1C(C(=O)N[C@H](C=O)Cc2ccccc2)Cc2cc(Cl)ccc2S1(=O)=O (stereo partly drawn) [Cpd 12p, N-(6-Chloro-3,4-dihydro-2-methyl-2H-1,2-benzothiazine-3-carbonyl)-L-phenylalaninal 1,1-dioxide]"
8,15 nM,"CN1C(C(=O)N[C@H](C=O)Cc2ccccc2)Cc2cc(Cl)ccc2S1(=O)=O (stereo partly drawn) [Cpd 12q, N-(6-Chloro-3,4-dihydro-2-methyl-2H-1,2-benzothiazine-3-carbonyl)-L-phenylalaninal 1,1-dioxide]"
9,24 nM,"CN1C(C(=O)N[C@H](C=O)Cc2ccccc2)Cc2cc3c(cc2S1(=O)=O)OCCO3 (stereo partly drawn) [Cpd 12r, N-(3,4-Dihydro-6,7-ethylenedioxy-2-methyl-2H-1,2-benzothiazine-3-carbonyl)-L-phenylalaninal 1,1-dioxide]"
10,30 nM,"CC(C)N1C(C(=O)N[C@H](C=O)Cc2ccccc2)Cc2cc3c(cc2S1(=O)=O)OCCO3 (stereo partly drawn) [Cpd 12u, N-(3,4-Dihydro-6,7-ethylenedioxy-2-isopropyl-2H-1,2-benzothiazine-3-carbonyl)-L-phenylalaninal 1,1-dioxide]"
11,~500 nM,"CN1C(C(=O)N[C@H](C=O)Cc2ccccc2)Cc2cc(N3CCOCC3)ccc2S1(=O)=O (stereo partly drawn) [Cpd 12z, N-(3,4-Dihydro-6-(4-morpholino)-2-methyl-2H-1,2-benzothiazine-3-carbonyl)-L-phenylalaninal 1,1-dioxide]"
12,~1000 nM,"CCNC(=O)C(=O)[C@H](Cc1ccccc1)NC(=O)C1Cc2cc(Cl)ccc2S(=O)(=O)N1C (stereo partly drawn) [Cpd 14A, N-Ethyl-3-(6-chloro-3,4-dihydro-2-methyl-2H-1,2-benzothiazine-3-carboxamido)-2-oxo-3-(S)-benzylpropanamide 1,1-dioxide]"

# Same assay, conditions: Table V; calpain I, 0.2 mM Succ-Leu-Tyr-MNA, pH 7.5; * mixture of diastereomers, a,b single diastereomers; read-out: IC50
row,IC50,Compound
1,~1000 nM,"CCCN1c2ccccc2S(=O)(=O)N(CC)C1C(=O)N[C@H](C=O)Cc1ccccc1 (single isomer, unassigned) [Cpd 35a, N-(3,4-Dihydro-2-ethyl-4-propyl-2H-1,2,4-benzothiadiazine-3-carbonyl)-L-phenylalaninal 1,1-dioxide]"
2,~3000 nM,"CCCN1c2ccccc2S(=O)(=O)N(CC)C1C(=O)N[C@H](C=O)Cc1ccccc1 (single isomer, unassigned) [Cpd 35b, N-(3,4-Dihydro-2-ethyl-4-propyl-2H-1,2,4-benzothiadiazine-3-carbonyl)-L-phenylalaninal 1,1-dioxide]"
3,~10000 nM,"CCN1C(C(=O)N[C@H](C=O)Cc2ccccc2)N(Cc2ccccc2)c2ccccc2S1(=O)=O (single isomer, unassigned) [Cpd 35c, N-(3,4-Dihydro-2-ethyl-4-benzyl-2H-1,2,4-benzothiadiazine-3-carbonyl)-L-phenylalaninal 1,1-dioxide]"
4,~1000 nM,"CCN1C(C(=O)N[C@H](C=O)Cc2ccccc2)N(Cc2ccccc2)c2ccccc2S1(=O)=O (single isomer, unassigned) [Cpd 35d, N-(3,4-Dihydro-2-ethyl-4-benzyl-2H-1,2,4-benzothiadiazine-3-carbonyl)-L-phenylalaninal 1,1-dioxide]"

# Same assay, conditions: Table VII; calpain I, 0.2 mM Succ-Leu-Tyr-MNA, pH 7.5; a,b single diastereomers; read-out: IC50
row,IC50,Compound
1,~5000 nM,"O=C[C@H](Cc1ccccc1)NC(=O)C1Cc2ccccc2C(=O)N1 (single isomer, unassigned) [Cpd 50a, N-(1-Oxo-1,2,3,4-tetrahydroisoquinoline-3-carbonyl)-L-phenylalaninal]"
2,~5000 nM,"O=C[C@H](Cc1ccccc1)NC(=O)C1Cc2ccccc2C(=O)N1 (single isomer, unassigned) [Cpd 50b, N-(1-Oxo-1,2,3,4-tetrahydroisoquinoline-3-carbonyl)-L-phenylalaninal]"
3,~1000 nM,"CN1C(=O)c2ccccc2CC1C(=O)N[C@H](C=O)Cc1ccccc1 (single isomer, unassigned) [Cpd 50c, N-(1-Oxo-2-methyl-1,2,3,4-tetrahydroisoquinoline-3-carbonyl)-L-phenylalaninal]"
